Source: article PMC3159025 (2011)

Molecular target: T1, system xc− (obligate cystine-glutamate transporter) (Homo sapiens, UniProt Q9UPY5)
T1 sequence (Q9UPY5 1-501): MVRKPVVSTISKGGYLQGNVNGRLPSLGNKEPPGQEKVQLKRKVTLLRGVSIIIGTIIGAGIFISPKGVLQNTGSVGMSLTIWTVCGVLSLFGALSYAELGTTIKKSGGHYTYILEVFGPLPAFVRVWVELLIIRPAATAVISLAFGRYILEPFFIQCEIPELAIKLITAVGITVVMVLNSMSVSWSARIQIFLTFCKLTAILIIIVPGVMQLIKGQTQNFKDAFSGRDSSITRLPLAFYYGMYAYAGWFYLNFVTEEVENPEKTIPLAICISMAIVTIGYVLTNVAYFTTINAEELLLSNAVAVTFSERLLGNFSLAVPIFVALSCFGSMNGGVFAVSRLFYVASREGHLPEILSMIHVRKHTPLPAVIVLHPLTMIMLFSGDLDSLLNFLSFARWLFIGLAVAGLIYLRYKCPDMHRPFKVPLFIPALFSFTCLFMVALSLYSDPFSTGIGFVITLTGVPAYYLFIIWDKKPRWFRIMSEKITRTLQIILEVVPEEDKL
T1 sequence (P08195 2-529 partner): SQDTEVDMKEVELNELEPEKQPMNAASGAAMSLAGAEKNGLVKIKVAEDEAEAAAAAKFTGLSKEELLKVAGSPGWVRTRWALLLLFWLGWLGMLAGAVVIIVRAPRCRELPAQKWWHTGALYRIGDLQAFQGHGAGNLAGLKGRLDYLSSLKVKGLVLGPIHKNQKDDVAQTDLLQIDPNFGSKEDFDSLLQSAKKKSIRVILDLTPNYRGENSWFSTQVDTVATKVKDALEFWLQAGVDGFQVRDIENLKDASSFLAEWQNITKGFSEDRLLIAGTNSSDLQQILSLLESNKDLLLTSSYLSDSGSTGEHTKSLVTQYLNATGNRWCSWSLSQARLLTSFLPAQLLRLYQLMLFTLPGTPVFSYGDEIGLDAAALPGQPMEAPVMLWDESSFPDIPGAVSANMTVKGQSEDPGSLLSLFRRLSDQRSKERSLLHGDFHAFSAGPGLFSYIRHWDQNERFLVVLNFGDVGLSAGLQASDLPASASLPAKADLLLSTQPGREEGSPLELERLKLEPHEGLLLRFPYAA
Test: inhibition of 3H-L-glutamate uptake
Assay type: cell-based
Details: SNB-19, read-out: Uptake ^a Sxc^-

activity at 500 µM: 22 ± 3%
Compound: N[C@@H](CSSC[C@H](N)C(=O)O)C(=O)O [L-Cystine]
